Source: patent US20170030929A1, “DIAGNOSIS OF CHRONIC KIDNEY DISEASE BY QUANTITATIVE ANALYSIS OF POST-TRANSLATIONAL MODIFICATIONS OF PLASMA PROTEINS” (EXCORLAB GMBH, priority 2014, published 2017)

How the values were obtained:
[1] = biological target: in-vitro guanidylated albumin (Homo sapiens, UniProt P02768); experiment: Effect of in-vitro guanidylation on protein bound fraction of albumin; conditions: albumin 75 μmol l^−1, ligand 7.5 μmol l^−1; over time of guanidylation (0-48 h)
albumin = albumin (Homo sapiens, UniProt P02768); conditions: literature references; cited from earlier work
albumin, sequence (P02768 25-609): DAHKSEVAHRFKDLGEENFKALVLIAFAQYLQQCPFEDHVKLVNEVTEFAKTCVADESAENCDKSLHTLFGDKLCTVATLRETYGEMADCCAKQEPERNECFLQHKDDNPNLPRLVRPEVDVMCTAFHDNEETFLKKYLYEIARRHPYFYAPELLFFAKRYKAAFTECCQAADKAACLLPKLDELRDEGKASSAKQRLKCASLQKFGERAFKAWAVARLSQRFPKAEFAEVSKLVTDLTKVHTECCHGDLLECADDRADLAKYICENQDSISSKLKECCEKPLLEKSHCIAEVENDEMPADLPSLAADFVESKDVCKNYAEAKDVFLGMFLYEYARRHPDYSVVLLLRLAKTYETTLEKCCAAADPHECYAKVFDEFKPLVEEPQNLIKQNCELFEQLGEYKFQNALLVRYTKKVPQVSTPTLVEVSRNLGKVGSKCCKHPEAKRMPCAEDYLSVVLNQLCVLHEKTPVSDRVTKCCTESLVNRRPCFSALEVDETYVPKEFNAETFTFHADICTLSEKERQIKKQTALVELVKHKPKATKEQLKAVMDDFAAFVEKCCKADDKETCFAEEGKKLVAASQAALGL

in-vitro guanidylated albumin, sequence (P02768 25-609): as above

- decrease of binding of albumin caused by in-vitro guanidylation [1]: 81%
Structure (SMILES): N[C@@H](Cc1c[nH]c2ccccc12)C(=O)O [L-tryptophan]
- affinity to post-translational modified albumin as compared to indoxyl sulfate (albumin): more than two orders of magnitude lower affinity
